Values after ≈ are worked out from the molar mass of the structure shown. Where a SMILES comes first, the peptide text is derived from it.
Tests used:
MDRAB 12035 = experiment: microbe, parasite or virus in culture; assay type: cell-based, Acinetobacter baumannii
In short: (§1)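 MIC read-out = lowest peptide level with no bacterial proliferation. Strains diluted in MH medium to 2×10^6 CFU; peptide twofold serial dilutions in MH added 1:1 in microtiter wells.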

A. baumannii [1] = experiment: microbe, parasite or virus in culture; assay type: cell-based, Acinetobacter baumannii
In short: as §1

MDREC 1229 = experiment: MIC of antibiotic during combined treatment with antimicrobial peptide; assay type: cell-based, Escherichia coli
In short: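 Antibiotic MIC came from antibiotic dilutions added to bacteria (2×10^6 CFU/ml, MH medium) already combined with peptide serially diluted 2:1 from its own MIC. Swapping the roles of the two agents gave the peptide MIC.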

A. baumannii [2] = experiment: as above; assay type: cell-based, Acinetobacter baumannii; settings: for Antibiotic MIC, Erythromycin / Antibiotic MIC, Linezolid / Antibiotic MIC, Vancomycin: A. baumannii
In short: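 MIC values for mixed peptide plus antibiotic solutions were measured in MH medium.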

S. typhimurium = experiment: microbe, parasite or virus in culture; assay type: cell-based, Salmonella typhimurium
In short: as §1

S. aureus = experiment: microbe, parasite or virus in culture; assay type: cell-based, Staphylococcus aureus
In short: as §1

[3] = peptide treatment concentration 1 μg/ml
[4] = peptide treatment concentration 2 μg/ml
[5] = peptide treatment concentration 4 μg/ml
[6] = peptide treatment concentration 6 μg/ml
[7] = peptide treatment concentration 8 μg/ml
[8] = peptide treatment concentration 16 μg/ml
[9] = peptide treatment concentration 32 μg/ml
[10] = peptide treatment concentration 64 μg/ml
[11] = combined with peptide at 1 μg/ml
[12] = combined with peptide at 2 μg/ml
[13] = combined with peptide at 4 μg/ml
[14] = combined with peptide at 6 μg/ml
[15] = combined with peptide at 8 μg/ml
[16] = combined with peptide at 16 μg/ml
[17] = combined with peptide at 32 μg/ml
[18] = combined with peptide at 64 μg/ml

## CC[C@H](C)[C@H](NC(=O)[C@H](CCCCN)NC(=O)[C@H](Cc1c[nH]c2ccccc12)NC(=O)[C@@H](N)CCCNC(=N)N)C(=O)N[C@@H](Cc1ccccc1)C(=O)N[C@@H](CCCCN)C(=O)N[C@@H](CCCCN)C(=O)N[C@H](C(=O)N1CCC[C@H]1C(=O)N[C@@H](CCCCN)C(=O)N[C@@H](CC(C)C)C(=O)N[C@@H](CC(C)C)C(=O)N[C@@H](Cc1c[nH]cn1)C(=O)N[C@@H](CO)C(=O)N[C@@H](C)C(=O)N[C@@H](CCCCN)C(=O)N[C@@H](CCCCN)C(=O)N[C@@H](Cc1c[nH]c2ccccc12)C(N)=O)[C@@H](C)CC [PapMA-9, RWK IFK KIP KLL HSA KKW-NH2] (H-RWKIFKKIPKLLHSAKKW-NH2; N-terminus assumed)
MDRAB 12035
  Minimal inhibitory concentration MIC: 64 µg/mL (≈ 27.7 µM)
  Peptide MIC, peptide alone: 64 µg/mL
A. baumannii [1]
  Minimal inhibitory concentration MIC: 32 µg/mL (≈ 13.9 µM)
  Peptide MIC, peptide alone: 32 µg/mL
MDREC 1229; [3]
  Antibiotic MIC, Erythromycin: 64 µg/mL
  Antibiotic MIC, Linezolid: 128 µg/mL
  Antibiotic MIC, Vancomycin: >128 µg/mL
MDREC 1229; [4]
  Antibiotic MIC, Erythromycin: 64 µg/mL
  Antibiotic MIC, Linezolid: 64 µg/mL
  Antibiotic MIC, Vancomycin: >128 µg/mL
MDREC 1229; [5]
  Antibiotic MIC, Erythromycin: 8 µg/mL
  Antibiotic MIC, Linezolid: 32 µg/mL
  Antibiotic MIC, Vancomycin: 128 µg/mL
MDREC 1229; [6]
  Antibiotic MIC, Erythromycin: 2 µg/mL
  Antibiotic MIC, Linezolid: 16 µg/mL
  Antibiotic MIC, Vancomycin: 32 µg/mL
MDREC 1229; [7]
  Antibiotic MIC, Erythromycin: 1 µg/mL
  Antibiotic MIC, Linezolid: 8 µg/mL
  Antibiotic MIC, Vancomycin: 8 µg/mL
MDREC 1229; [8]
  Antibiotic MIC, Erythromycin: 0.5 µg/mL
  Antibiotic MIC, Linezolid: 4 µg/mL
  Antibiotic MIC, Vancomycin: 4 µg/mL
MDREC 1229; [9]
  Antibiotic MIC, Erythromycin: 0.125 µg/mL
  Antibiotic MIC, Linezolid: 2 µg/mL
  Antibiotic MIC, Vancomycin: 2 µg/mL
MDREC 1229; [10]
  Antibiotic MIC, Erythromycin: 0 µg/mL
  Antibiotic MIC, Linezolid: 0 µg/mL
  Antibiotic MIC, Vancomycin: 0 µg/mL
A. baumannii [2]; A. baumannii and MDRAB 12035
  Synergistic effect of antibacterial activity with existing antibiotics compared with PapMA-1: higher level than the PapMA-1 peptide
A. baumannii [2]; [11]
  Antibiotic MIC, Erythromycin: 32 µg/mL
  Antibiotic MIC, Linezolid: >128 µg/mL
  Antibiotic MIC, Vancomycin: >128 µg/mL
A. baumannii [2]; [12]
  Antibiotic MIC, Erythromycin: 8 µg/mL
  Antibiotic MIC, Linezolid: 128 µg/mL
  Antibiotic MIC, Vancomycin: 128 µg/mL
A. baumannii [2]; [13]
  Antibiotic MIC, Erythromycin: 4 µg/mL
  Antibiotic MIC, Linezolid: 8 µg/mL
  Antibiotic MIC, Vancomycin: 32 µg/mL
A. baumannii [2]; [14]
  Antibiotic MIC, Erythromycin: 2 µg/mL
  Antibiotic MIC, Linezolid: 8 µg/mL
  Antibiotic MIC, Vancomycin: 16 µg/mL
A. baumannii [2]; [15]
  Antibiotic MIC, Erythromycin: 0.25 µg/mL
  Antibiotic MIC, Linezolid: 2 µg/mL
  Antibiotic MIC, Vancomycin: 8 µg/mL
A. baumannii [2]; [16]
  Antibiotic MIC, Erythromycin: 0.125 µg/mL
  Antibiotic MIC, Linezolid: 0.5 µg/mL
  Antibiotic MIC, Vancomycin: 2 µg/mL
A. baumannii [2]; [17]
  Antibiotic MIC, Erythromycin: 0 µg/mL
  Antibiotic MIC, Linezolid: 0 µg/mL
  Antibiotic MIC, Vancomycin: 0 µg/mL
A. baumannii [2]; [18]
  Antibiotic MIC, Erythromycin: 0 µg/mL
  Antibiotic MIC, Linezolid: 0 µg/mL
  Antibiotic MIC, Vancomycin: 0 µg/mL
S. typhimurium
  Minimal inhibitory concentration MIC: 32 µg/mL (≈ 13.9 µM)
S. aureus
  Minimal inhibitory concentration MIC: >128 µg/mL

## CC[C@H](C)[C@H](NC(=O)[C@H](CCCCN)NC(=O)[C@H](Cc1c[nH]c2ccccc12)NC(=O)[C@@H](N)CCCNC(=N)N)C(=O)N[C@@H](Cc1ccccc1)C(=O)N[C@@H](CCCCN)C(=O)N[C@@H](CCCCN)C(=O)N[C@H](C(=O)N1CCC[C@H]1C(=O)N[C@@H](CCCCN)C(=O)N[C@@H](Cc1ccccc1)C(=O)N[C@@H](CC(C)C)C(=O)N[C@@H](Cc1c[nH]cn1)C(=O)N[C@@H](CO)C(=O)N[C@@H](C)C(=O)N[C@@H](CCCCN)C(=O)N[C@@H](CCCCN)C(=O)N[C@@H](Cc1ccccc1)C(N)=O)[C@@H](C)CC [PapMA-1, RWK IFK KIP KFL HSA KKF-NH2] (H-RWKIFKKIPKFLHSAKKF-NH2; N-terminus assumed)
MDRAB 12035
  Minimal inhibitory concentration MIC: 64 µg/mL (≈ 27.8 µM)
  Peptide MIC, peptide alone: 64 µg/mL
A. baumannii [1]
  Minimal inhibitory concentration MIC: 64 µg/mL (≈ 27.8 µM)
  Peptide MIC, peptide alone: 64 µg/mL
MDREC 1229; [3]
  Antibiotic MIC, Erythromycin: 128 µg/mL
  Antibiotic MIC, Linezolid: >128 µg/mL
  Antibiotic MIC, Vancomycin: >128 µg/mL
MDREC 1229; [4]
  Antibiotic MIC, Erythromycin: 32 µg/mL
  Antibiotic MIC, Linezolid: 128 µg/mL
  Antibiotic MIC, Vancomycin: >128 µg/mL
MDREC 1229; [5]
  Antibiotic MIC, Erythromycin: 16 µg/mL
  Antibiotic MIC, Linezolid: 64 µg/mL
  Antibiotic MIC, Vancomycin: >128 µg/mL
MDREC 1229; [6]
  Antibiotic MIC, Erythromycin: 8 µg/mL
  Antibiotic MIC, Linezolid: 64 µg/mL
  Antibiotic MIC, Vancomycin: >128 µg/mL
MDREC 1229; [7]
  Antibiotic MIC, Erythromycin: 4 µg/mL
  Antibiotic MIC, Linezolid: 32 µg/mL
  Antibiotic MIC, Vancomycin: 128 µg/mL
MDREC 1229; [8]
  Antibiotic MIC, Erythromycin: 1 µg/mL
  Antibiotic MIC, Linezolid: 16 µg/mL
  Antibiotic MIC, Vancomycin: 16 µg/mL
MDREC 1229; [9]
  Antibiotic MIC, Erythromycin: 0.25 µg/mL
  Antibiotic MIC, Linezolid: 8 µg/mL
  Antibiotic MIC, Vancomycin: 8 µg/mL
MDREC 1229; [10]
  Antibiotic MIC, Erythromycin: 0 µg/mL
  Antibiotic MIC, Linezolid: 0 µg/mL
  Antibiotic MIC, Vancomycin: 0 µg/mL
A. baumannii [2]; [11]
  Antibiotic MIC, Erythromycin: 32 µg/mL
  Antibiotic MIC, Linezolid: >128 µg/mL
  Antibiotic MIC, Vancomycin: >128 µg/mL
A. baumannii [2]; [12]
  Antibiotic MIC, Erythromycin: 16 µg/mL
  Antibiotic MIC, Linezolid: 128 µg/mL
  Antibiotic MIC, Vancomycin: 128 µg/mL
A. baumannii [2]; [13]
  Antibiotic MIC, Erythromycin: 8 µg/mL
  Antibiotic MIC, Linezolid: 32 µg/mL
  Antibiotic MIC, Vancomycin: 32 µg/mL
A. baumannii [2]; [14]
  Antibiotic MIC, Erythromycin: 2 µg/mL
  Antibiotic MIC, Linezolid: 32 µg/mL
  Antibiotic MIC, Vancomycin: 16 µg/mL
A. baumannii [2]; [15]
  Antibiotic MIC, Erythromycin: 0.5 µg/mL
  Antibiotic MIC, Linezolid: 8 µg/mL
  Antibiotic MIC, Vancomycin: 8 µg/mL
A. baumannii [2]; [16]
  Antibiotic MIC, Erythromycin: 0.125 µg/mL
  Antibiotic MIC, Linezolid: 4 µg/mL
  Antibiotic MIC, Vancomycin: 8 µg/mL
A. baumannii [2]; [17]
  Antibiotic MIC, Erythromycin: 0.0625 µg/mL
  Antibiotic MIC, Linezolid: 4 µg/mL
  Antibiotic MIC, Vancomycin: 2 µg/mL
A. baumannii [2]; [18]
  Antibiotic MIC, Erythromycin: 0 µg/mL
  Antibiotic MIC, Linezolid: 0 µg/mL
  Antibiotic MIC, Vancomycin: 0 µg/mL
S. typhimurium
  Minimal inhibitory concentration MIC: 64 µg/mL (≈ 27.8 µM)
S. aureus
  Minimal inhibitory concentration MIC: >128 µg/mL

Source: patent US11214594B2, “Antimicrobial peptide having synergistic antibacterial effect with antibiotics on multidrug resistant bacteria, and use thereof” (priority 2016, dated 2022)
